Assay results as given in PMC11868595, “Safety, pharmacokinetics and efficacy of HA121-28 in patients with advanced solid tumors and RET fusion-positive non-small-cell lung cancer: a multicenter, open-label, single-arm phase 1/2 trial” (Signal Transduction and Targeted Therapy, 2025).

System: patients with advanced solid tumors
Experiment: Phase 1 trial: adverse events (CTCAE), DLT and MTD
Format: in vivo, human
Procedure: The phase 1 trial was a two-part, multicenter, open-label, nonrandomized study to evaluate the safety and preliminary efficacy of HA121-28.
Safety, tolerability, and PK of HA121-28 was assessed in dose-escalation part. The single-patient accelerated titration was carried out at 25 mg and 50 mg; then, the dose escalation proceeded according to a “3 + 3” design in dose range of 100 to 800 mg. Escalation to a higher dose level was considered by the satisfactory review of safety results from the previous lower dose during the first cycle.
The dose-expansion part aims to further access the safety and efficacy of HA121-28 at the selected doses based on data from the dose-escalation part. The RP2D was determined by investigators in view of a thorough review of safety, PK, and efficacy results.
In phase 1 trial, during the dose-escalation part, patients first administered HA121-28 in a single ascending dose under the fasted state, then followed up for seven days. Then, patients received ascending doses of HA121-28 (q.d.) on a 21-day on and 7-day off treatment scheme for a 28-day cycle. For patients deemed beneficial from the treatment by investigators, treatment could remain until disease progression, or they discontinued from the study. In the dose-expansion part of phase 1, as well as phase 2, patients received HA121-28 (q.d.) at the selected doses on a 21-day on and 7-day off treatment scheme until disease progression, or they discontinued from the study.
Treatment-emergent adverse events (TEAEs) were documented during the entire study period. The predefined adverse event of special interest (AESI) was ≥ grade 3 prolonged QT interval. Tumor imaging was performed using contrast-enhanced computed tomography or magnetic resonance imaging at screening, Day 28 of the first cycle, then approximately every eight weeks till the end of the study for phase 1; in phase 2, imaging was scheduled at screening, and every eight weeks during the first 40 weeks, followed by every 12 weeks for the rest of the study period. RECIST 1.1 was used by the independent review committee or investigators for assessment of tumor response. After the original assessment, a repeated assessment was required around four weeks later to confirm a complete or partial response.
The primary endpoints of phase 1 were to investigate the MTD, dose-limiting toxicities, and the incidence and severity of TEAEs. Each TEAE was graded according to the Common Terminology Criteria for Adverse Events (CTCAE, version 5.0) and coded by Medical Dictionary for Regulatory Activities (MedDRA, version 21.0). The secondary endpoints included calculating PK parameters, assessing the ORR and DCR at the recommended dose by investigators as per RECIST 1.1. The exploratory endpoint was PFS.
If grade 2 or higher toxicity related to the study drug occurs in Groups 1 and 2 (as determined by the investigator), dose escalation will proceed using a 3+3 design starting from that dose level. If no DLT is observed at the 800 mg/d dose level after dose escalation, a meeting of investigators will be convened to decide whether to proceed with further dose escalation based on the available PK data, safety, and tolerability information.
5. Definition of DLT and MTD
The following events related to the study drug (including those that are definitely related, highly likely to be related, and possibly related):
(1) Grade 4 hematologic toxicity or grade 3 neutropenia accompanied by a fever of 38.5℃ or higher, or grade 3 thrombocytopenia accompanied by severe bleeding.
(2) Patients who discontinued the medication for more than 7 days due to unresolved toxicity reactions or who discontinued the medication more than twice due to toxicity […]
(3) In the context of supportive treatment, diarrhea of grade 2 lasting more than 7 days, or grade 3 diarrhea lasting more than 3 days.

COc1cc2c(Nc3ccc(Br)cc3F)ncnc2cc1OCCCCN(C)C.Cl.Cl [HA121-28, N-(4-bromo-2-fluorophenyl)-7-(4-(dimethylamino)butoxy)-6-methoxy quinazolin-4-amine dihydrochloride]
Serious TEAE: Cardiac tamponade (Phase 1, 600 mg (N=64)): 0 No. (%)
Serious TEAE: Coronary artery atherosclerosis (Phase 1, 600 mg (N=64)): 0 No. (%)
Serious TEAE: Death (Phase 1, 600 mg (N=64)): 0 No. (%)
Serious TEAE: Diarrhea (Phase 1, 600 mg (N=64)): 2 (3.1) No. (%)
Serious TEAE: Drug eruption (Phase 1, 600 mg (N=64)): 1 (1.6) No. (%)
Serious TEAE: Dyspnea (Phase 1, 600 mg (N=64)): 0 No. (%)
Serious TEAE: Embolism (Phase 1, 600 mg (N=64)): 0 No. (%)
Serious TEAE: Erythema multiforme (Phase 1, 600 mg (N=64)): 0 No. (%)
Serious TEAE: Headache (Phase 1, 600 mg (N=64)): 0 No. (%)
Serious TEAE: Hemoptysis (Phase 1, 600 mg (N=64)): 1 (1.6) No. (%)
Serious TEAE: Hydronephrosis (Phase 1, 600 mg (N=64)): 0 No. (%)
Serious TEAE: Hypertension (Phase 1, 600 mg (N=64)): 0 No. (%)
Serious TEAE: Hypoalbuminemia (Phase 1, 600 mg (N=64)): 1 (1.6) No. (%)
Serious TEAE: Intestinal obstruction (Phase 1, 600 mg (N=64)): 0 No. (%)
Serious TEAE: Intra-abdominal fluid collection (Phase 1, 600 mg (N=64)): 0 No. (%)
Serious TEAE: Intracranial tumor hemorrhage (Phase 1, 600 mg (N=64)): 0 No. (%)
Serious TEAE: Liver injury (Phase 1, 600 mg (N=64)): 1 (1.6) No. (%)
Serious TEAE: Lung adenocarcinoma (Phase 1, 600 mg (N=64)): 0 No. (%)
Serious TEAE: Malignant neoplasm progression (Phase 1, 600 mg (N=64)): 2 (3.1) No. (%)
Serious TEAE: Multiple organ dysfunction syndrome (Phase 1, 600 mg (N=64)): 0 No. (%)
Serious TEAE: Nausea (Phase 1, 600 mg (N=64)): 2 (3.1) No. (%)
Serious TEAE: Nephrolithiasis (Phase 1, 600 mg (N=64)): 0 No. (%)
Serious TEAE: Platelet counts decreased (Phase 1, 600 mg (N=64)): 1 (1.6) No. (%)
Serious TEAE: Pleural effusion (Phase 1, 600 mg (N=64)): 0 No. (%)
Serious TEAE: Pneumonia (Phase 1, 600 mg (N=64)): 0 No. (%)
Serious TEAE: Pneumonitis (Phase 1, 600 mg (N=64)): 0 No. (%)
Serious TEAE: Prolonged QT interval (Phase 1, 600 mg (N=64)): 1 (1.6) No. (%)
Serious TEAE: Pulmonary embolism (Phase 1, 600 mg (N=64)): 0 No. (%)
Serious TEAE: Pyrexia (Phase 1, 600 mg (N=64)): 0 No. (%)
Serious TEAE: Rash (Phase 1, 600 mg (N=64)): 3 (4.7) No. (%)
Serious TEAE: Rectal hemorrhage (Phase 1, 600 mg (N=64)): 0 No. (%)
Serious TEAE: Respiratory failure (Phase 1, 600 mg (N=64)): 0 No. (%)
Serious TEAE: Seizure (Phase 1, 600 mg (N=64)): 0 No. (%)
Serious TEAE: Septic shock (Phase 1, 600 mg (N=64)): 0 No. (%)
Serious TEAE: Sudden cardiac arrest (Phase 1, 600 mg (N=64)): 1 (1.6) No. (%)
Serious TEAE: Sudden death (Phase 1, 600 mg (N=64)): 1 (1.6) No. (%)
Serious TEAE: Upper respiratory tract infection (Phase 1, 600 mg (N=64)): 1 (1.6) No. (%)
Serious TEAE: Ventricular tachycardia (Phase 1, 600 mg (N=64)): 1 (1.6) No. (%)
Serious TEAE: Vomiting (Phase 1, 600 mg (N=64)): 2 (3.1) No. (%)
Serious TEAE: Weight loss (Phase 1, 600 mg (N=64)): 2 (3.1) No. (%)
Serious TRAE: ALT increased (Phase 1, 600 mg (N=64)): 1 (1.6) No. (%)
Serious TRAE: AST increased (Phase 1, 600 mg (N=64)): 1 (1.6) No. (%)
Serious TRAE: Abdominal Pain (Phase 1, 600 mg (N=64)): 0 No. (%)
Serious TRAE: Abdominal distension (Phase 1, 600 mg (N=64)): 0 No. (%)
Serious TRAE: Acute cholecystitis (Phase 1, 600 mg (N=64)): 0 No. (%)
Serious TRAE: Acute pancreatitis (Phase 1, 600 mg (N=64)): 0 No. (%)
Serious TRAE: Anal abscess (Phase 1, 600 mg (N=64)): 1 (1.6) No. (%)
Serious TRAE: Any (Phase 1, 600 mg (N=64)): 13 (20.3) No. (%)
Serious TRAE: Aortic intramural hematoma (Phase 1, 600 mg (N=64)): 0 No. (%)
Serious TRAE: Arrhythmia (Phase 1, 600 mg (N=64)): 0 No. (%)
Serious TRAE: Blood bilirubin increased (Phase 1, 600 mg (N=64)): 1 (1.6) No. (%)
Serious TRAE: Blood creatinine increased (Phase 1, 600 mg (N=64)): 1 (1.6) No. (%)
Serious TRAE: COVID-19 (Phase 1, 600 mg (N=64)): 0 No. (%)
Serious TRAE: Cardiac tamponade (Phase 1, 600 mg (N=64)): 0 No. (%)
Serious TRAE: Coronary artery atherosclerosis (Phase 1, 600 mg (N=64)): 0 No. (%)
Serious TRAE: Death (Phase 1, 600 mg (N=64)): 0 No. (%)
Serious TRAE: Diarrhea (Phase 1, 600 mg (N=64)): 2 (3.1) No. (%)
Serious TRAE: Drug eruption (Phase 1, 600 mg (N=64)): 1 (1.6) No. (%)
Serious TRAE: Dyspnea (Phase 1, 600 mg (N=64)): 0 No. (%)
Serious TRAE: Embolism (Phase 1, 600 mg (N=64)): 0 No. (%)
Serious TRAE: Erythema multiforme (Phase 1, 600 mg (N=64)): 0 No. (%)
Serious TRAE: Headache (Phase 1, 600 mg (N=64)): 0 No. (%)
Serious TRAE: Hemoptysis (Phase 1, 600 mg (N=64)): 1 (1.6) No. (%)
Serious TRAE: Hydronephrosis (Phase 1, 600 mg (N=64)): 0 No. (%)
Serious TRAE: Hypertension (Phase 1, 600 mg (N=64)): 0 No. (%)
Serious TRAE: Hypoalbuminemia (Phase 1, 600 mg (N=64)): 1 (1.6) No. (%)
Serious TRAE: Intestinal obstruction (Phase 1, 600 mg (N=64)): 0 No. (%)
Serious TRAE: Intra-abdominal fluid collection (Phase 1, 600 mg (N=64)): 0 No. (%)
Serious TRAE: Intracranial tumor hemorrhage (Phase 1, 600 mg (N=64)): 0 No. (%)
Serious TRAE: Liver injury (Phase 1, 600 mg (N=64)): 0 No. (%)
Serious TRAE: Lung adenocarcinoma (Phase 1, 600 mg (N=64)): 0 No. (%)
Serious TRAE: Malignant neoplasm progression (Phase 1, 600 mg (N=64)): 1 (1.6) No. (%)
Serious TRAE: Multiple organ dysfunction syndrome (Phase 1, 600 mg (N=64)): 0 No. (%)
Serious TRAE: Nausea (Phase 1, 600 mg (N=64)): 2 (3.1) No. (%)
Serious TRAE: Nephrolithiasis (Phase 1, 600 mg (N=64)): 0 No. (%)
Serious TRAE: Platelet counts decreased (Phase 1, 600 mg (N=64)): 0 No. (%)
Serious TRAE: Pleural effusion (Phase 1, 600 mg (N=64)): 0 No. (%)
Serious TRAE: Pneumonia (Phase 1, 600 mg (N=64)): 0 No. (%)
Serious TRAE: Pneumonitis (Phase 1, 600 mg (N=64)): 0 No. (%)
Serious TRAE: Prolonged QT interval (Phase 1, 600 mg (N=64)): 1 (1.6) No. (%)
Serious TRAE: Pulmonary embolism (Phase 1, 600 mg (N=64)): 0 No. (%)
Serious TRAE: Pyrexia (Phase 1, 600 mg (N=64)): 0 No. (%)
Serious TRAE: Rash (Phase 1, 600 mg (N=64)): 3 (4.7) No. (%)
Serious TRAE: Rectal hemorrhage (Phase 1, 600 mg (N=64)): 0 No. (%)
Serious TRAE: Respiratory failure (Phase 1, 600 mg (N=64)): 0 No. (%)
Serious TRAE: Seizure (Phase 1, 600 mg (N=64)): 0 No. (%)
Serious TRAE: Septic shock (Phase 1, 600 mg (N=64)): 0 No. (%)
Serious TRAE: Sudden cardiac arrest (Phase 1, 600 mg (N=64)): 1 (1.6) No. (%)
Serious TRAE: Sudden death (Phase 1, 600 mg (N=64)): 1 (1.6) No. (%)
Serious TRAE: Upper respiratory tract infection (Phase 1, 600 mg (N=64)): 0 No. (%)
Serious TRAE: Ventricular tachycardia (Phase 1, 600 mg (N=64)): 1 (1.6) No. (%)
Serious TRAE: Vomiting (Phase 1, 600 mg (N=64)): 2 (3.1) No. (%)
Serious TRAE: Weight loss (Phase 1, 600 mg (N=64)): 2 (3.1) No. (%)
Serious TEAE: ALT increased (Phase 1, 800 mg (N=3)): 0 No. (%)
Serious TEAE: AST increased (Phase 1, 800 mg (N=3)): 0 No. (%)
Serious TEAE: Abdominal Pain (Phase 1, 800 mg (N=3)): 0 No. (%)
Serious TEAE: Abdominal distension (Phase 1, 800 mg (N=3)): 0 No. (%)
Serious TEAE: Acute cholecystitis (Phase 1, 800 mg (N=3)): 0 No. (%)
Serious TEAE: Acute pancreatitis (Phase 1, 800 mg (N=3)): 0 No. (%)
Serious TEAE: Anal abscess (Phase 1, 800 mg (N=3)): 0 No. (%)
Serious TEAE: Any (Phase 1, 800 mg (N=3)): 1 (33.3) No. (%)
Serious TEAE: Aortic intramural hematoma (Phase 1, 800 mg (N=3)): 0 No. (%)
Serious TEAE: Arrhythmia (Phase 1, 800 mg (N=3)): 0 No. (%)
Serious TEAE: Blood bilirubin increased (Phase 1, 800 mg (N=3)): 0 No. (%)
Serious TEAE: Blood creatinine increased (Phase 1, 800 mg (N=3)): 0 No. (%)
Serious TEAE: COVID-19 (Phase 1, 800 mg (N=3)): 0 No. (%)
Serious TEAE: Cardiac tamponade (Phase 1, 800 mg (N=3)): 0 No. (%)
Serious TEAE: Coronary artery atherosclerosis (Phase 1, 800 mg (N=3)): 0 No. (%)
Serious TEAE: Death (Phase 1, 800 mg (N=3)): 0 No. (%)
Serious TEAE: Diarrhea (Phase 1, 800 mg (N=3)): 0 No. (%)
Serious TEAE: Drug eruption (Phase 1, 800 mg (N=3)): 0 No. (%)
Serious TEAE: Dyspnea (Phase 1, 800 mg (N=3)): 0 No. (%)
Serious TEAE: Embolism (Phase 1, 800 mg (N=3)): 0 No. (%)
Serious TEAE: Erythema multiforme (Phase 1, 800 mg (N=3)): 0 No. (%)
